Several values for one entry are separate records, joined by “and”; a condition that tells them apart may be missing. Equal values may be shown once.
How the values were obtained:
[1] = target: Beta-1 adrenergic receptor (Homo sapiens) (UniProt P08588); experiment: Compound was tested for its inotropic effect by activation of beta-1 adrenergic receptor directly or indirectly; activity values are 70,71
[2] = target: T1, Phosphodiesterase; PDE3 & PDE4 (Homo sapiens) (UniProt P27815+Q14432+Q08499+Q07343+Q13370+Q08493); experiment: Inhibition of cAMP Phosphodiesterase enzyme.; assay type: protein assay
[3] = target: Beta-1 adrenergic receptor (Homo sapiens) (UniProt P08588)
Description: Positive inotropic effects by direct or indirect beta-1 adrenergic receptor activation.

[4] = target: T1, Phosphodiesterase; PDE3 & PDE4 (Homo sapiens); experiment: Compound was evaluated for its inotropic activity by the inhibition of cAMP Phosphodiesterase enzyme; assay type: protein assay
[5] = Compound was evaluated for its inotropic activity by its ability to increase Myofibrillar Ca++ sensitivity.; assay type: functional
[6] = target: Beta-1 adrenergic receptor (Homo sapiens) (UniProt P08588); experiment: Compound was tested for its inotropic effect by activation of beta-1 adrenergic receptor directly or indirectly; activity values are 73,75

Beta-1 adrenergic receptor (Homo sapiens), sequence (P08588 whole entry, looked up): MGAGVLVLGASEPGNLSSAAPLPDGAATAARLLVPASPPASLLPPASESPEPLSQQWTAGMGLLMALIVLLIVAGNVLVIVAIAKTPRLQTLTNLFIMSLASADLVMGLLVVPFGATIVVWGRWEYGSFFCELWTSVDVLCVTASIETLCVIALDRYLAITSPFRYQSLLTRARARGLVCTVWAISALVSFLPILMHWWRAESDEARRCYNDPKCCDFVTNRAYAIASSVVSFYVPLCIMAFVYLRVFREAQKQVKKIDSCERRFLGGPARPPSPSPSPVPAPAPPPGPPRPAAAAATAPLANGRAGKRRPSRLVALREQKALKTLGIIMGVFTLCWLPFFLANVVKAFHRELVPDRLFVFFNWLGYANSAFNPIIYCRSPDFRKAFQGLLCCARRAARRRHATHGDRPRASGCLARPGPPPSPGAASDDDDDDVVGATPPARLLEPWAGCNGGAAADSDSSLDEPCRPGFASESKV

PDE inhibition [2]	Inotropic effect [3]	Compound	further results
63		CC(=O)Nc1ccc(-c2cnc(O)cn2)cc1	
90		CN(C(=O)CCCOc1ccc2c(c1)CN1CC(=O)NC1=N2)C1CCCCC1	
83		O=C1CCC(c2ccc3c(c2)NC(=O)CC3)=NN1	
	82	COc1ccc(-c2nc3cc(C4=NNC(=O)CC4C)ccc3[nH]2)cc1 (stereo not given)	PDE inhibition [4]: 81 and 80
62		Cc1nc(O)c(N)cc1-c1ccccc1	Mechanistic reference [5]: 62
67	67	CCc1nc(O)ncc1-c1ccc(O)cc1	
	66	Cc1nc(=O)c(C#N)c(NCc2cccnc2)[nH]1	PDE inhibition [4]: 64 and 65
	35 and 34	CC(C)NC[C@H](O)COc1ccc(O)cc1	
86	86	CCNC(=O)OC1CCN(c2nncc3cc(OC)c(OC)cc23)CC1	
87		COc1ccc(C(=O)N2CCN(c3ccc4c(c3)CCC(=O)N4)CC2)cc1OC	
84	85	CCCCNC(=O)NC1CCN(c2ncnc3cc(OC)c(OC)cc23)CC1	
91		COc1ccc2[nH]c(=O)nc(C)c2c1OC	
88	89	C[C@@H]1C(=O)NC2=Nc3cccc(Cl)c3CN21	

The remaining lines, values behind:

Compound	PDE inhibition [2]	Inotropic effect [3]	further results
CCc1[nH]c(=O)[nH]c1C(=O)c1ccncc1	68		Inotropic effect [1]: 71
C[C@H](CCc1ccc(O)cc1)NC[C@H](O)c1ccc(O)cc1		39	
OC(CNCCC1c2ccccc2Oc2ccccc21)COc1ccccc1 (stereo not given)		45 and 44	
CNCCc1ccc(OC(=O)C(C)C)c(OC(=O)C(C)C)c1		38	
O=C1CCC(c2ccc(-n3ccnc3)cc2)=NN1	76	78	
Nc1cc(-c2ccncc2)c[nH]c1=O		57	PDE inhibition [4]: 57 and 56 and 24
Oc1ccc(CCNCCCCCCNCCc2ccccc2)cc1O		36	
CC(CCc1ccc(O)cc1)NCCc1ccc(O)c(O)c1 (stereo not given)		26	
CSc1ccc(C(=O)c2[nH]c(=O)[nH]c2C)cc1	72		Inotropic effect [6]: 75
CC1CC(O)=NN=C1c1ccc(-n2ccnc2)cc1 (stereo not given)	76		
Cc1[nH]c(=O)c(C#N)cc1-c1ccncc1	58		

From ChEMBL document CHEMBL1123575, “In search of the digitalis replacement” (J Med Chem, 1987)
